Tests used:
corn [1] = test: Test A pre-/postemergence herbicide test; assay type: in vivo, Zea mays; settings: Postemergence
Procedure, shortened: (§1)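 Directed soil spray to seeded pots (preemergence) or spray onto one- to two-leaf seedlings 2–10 cm tall (postemergence); loam/sand substrate throughout. Evaluated visually after about 10 days against untreated plants, 0 = no effect, 100 = complete control.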

ryegrass, Italian = test: Test C pre-/postemergence herbicide test; assay type: in vivo, Lolium multiflorum
Procedure, shortened: (§2)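 Two application timings ran in parallel with identically formulated test chemicals (non-phytotoxic solvent, surfactant included): spray on seeded loam–sand soil, and spray on emerged plants 2 to 18 cm high. Evaluation at 13 to 15 days compared each species with controls, rated from 0 up to 100.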

ducksalad = test: Test B flooded paddy test; assay type: in vivo, Heteranthera limosa; settings: 500 g ai/ha, Flood; scale of 0 to 100 where 0 is no effect and 100 is complete control
Procedure, shortened: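 2-leaf plants; flood 3 cm over soil; compound into paddy water; depth held. Greenhouse 13–15 d. Visual rating vs controls, 0 (no effect) to 100 (complete control); dash = not tested.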

lambsquarters = test: Test C pre-/postemergence herbicide test; assay type: in vivo, Chenopodium album
Procedure, shortened: as §2

barnyardgrass [2] = test: Test A pre-/postemergence herbicide test; assay type: in vivo, Echinochloa crus-galli
Procedure, shortened: as §1

nutsedge, yellow = test: Test C pre-/postemergence herbicide test; assay type: in vivo, Cyperus esculentus
Procedure, shortened: as §2

corn [3] = test: Test C pre-/postemergence herbicide test; assay type: in vivo, Zea mays
Procedure, shortened: as §2

giant foxtail = test: Test A pre-/postemergence herbicide test; assay type: in vivo, Setaria faberii
Procedure, shortened: as §1

barnyardgrass [4] = test: Test C pre-/postemergence herbicide test; assay type: in vivo, Echinochloa crus-galli
Procedure, shortened: as §2

soybean = test: Test C pre-/postemergence herbicide test; assay type: in vivo, Glycine max
Procedure, shortened: as §2

waterhemp = test: Test C pre-/postemergence herbicide test; assay type: in vivo, Amaranthus rudis
Procedure, shortened: as §2

[5] = 125 g ai/ha, 0 to 100 scale, 0 is no effect, 100 is complete control
[6] = 500 g ai/ha, 0 to 100 scale (0 no effect, 100 complete control)
[7] = Postemergence, 31 g ai/ha, scale 0 to 100 (0 no effect, 100 complete control)
[8] = Postemergence, 62 g ai/ha, scale 0 (no effect) to 100 (complete control)
[9] = Postemergence, 125 g ai/ha, scale 0 to 100 (0 no effect, 100 complete control)
[10] = Postemergence, 250 g ai/ha, scale 0 to 100 (0 no effect, 100 complete control)
[11] = Preemergence, 31 g ai/ha, scale 0 to 100, 0 is no effect and 100 is complete control
[12] = Preemergence, 62 g ai/ha, scale 0 to 100 (0 no effect, 100 complete control)
[13] = Preemergence, 125 g ai/ha, scale 0 to 100 (0 no effect, 100 complete control)
[14] = Postemergence, 125 g ai/ha, 0 to 100 scale, 0 is no effect, 100 is complete control
[15] = Postemergence, 500 g ai/ha, 0 to 100 scale (0 no effect, 100 complete control)
[16] = Preemergence, 125 g ai/ha, 0 to 100 scale where 0 is no effect and 100 is complete control
[17] = preemergence, 500 g ai/ha, 0 to 100 scale, 0 is no effect and 100 is complete control

## O=C1NCC(c2cccc(Cl)c2)C1C(=O)Nc1cccc(F)c1F (racemic) [Compound 275]
Corn [1]; [5]
  Plant response rating, Corn: 40
Corn [1]; [6]
  Plant response rating, Corn: 90
ryegrass, Italian; [7]
  Plant response rating, Ryegrass, Italian: 0
ryegrass, Italian; [8]
  Plant response rating, Ryegrass, Italian: 0
ryegrass, Italian; [9]
  Plant response rating, Ryegrass, Italian: 5
ryegrass, Italian; [10]
  Plant response rating, Ryegrass, Italian: 25
ryegrass, Italian; [11]
  Ryegrass, Italian plant response rating: 15
ryegrass, Italian; [12]
  Ryegrass, Italian plant response rating: 40
ryegrass, Italian; [13]
  Plant response rating, Ryegrass, Italian: 50
ryegrass, Italian; Preemergence, 250 g ai/ha
  Plant response rating (scale of 0 to 100), Ryegrass, Italian: 60
ducksalad
  Plant response rating, Ducksalad: 100
lambsquarters; [7]
  Plant response rating, Lambsquarters: 10
lambsquarters; [8]
  Plant response rating, Lambsquarters: 60
lambsquarters; [9]
  Plant response rating, Lambsquarters: 75
lambsquarters; [10]
  Plant response rating, Lambsquarters: 75
lambsquarters; [11]
  Lambsquarters plant response rating: 70
lambsquarters; [12]
  Lambsquarters plant response rating: 75
lambsquarters; [13]
  Plant response rating, Lambsquarters: 85
lambsquarters; Preemergence, 250 g ai/ha
  Plant response rating (scale of 0 to 100), Lambsquarters: 98
Barnyardgrass [2]; [14]
  Plant response rating, Barnyardgrass: 90
Barnyardgrass [2]; [15]
  Plant response rating, Barnyardgrass: 90
Barnyardgrass [2]; [16]
  Plant response rating, Barnyardgrass: 90
Barnyardgrass [2]; [17]
  Plant response rating, Barnyardgrass: 90
nutsedge, yellow; [7]
  Plant response rating, Nutsedge, Yellow: 0
nutsedge, yellow; [8]
  Plant response rating, Nutsedge, Yellow: 0
nutsedge, yellow; [9]
  Plant response rating, Nutsedge, Yellow: 0
nutsedge, yellow; [10]
  Plant response rating, Nutsedge, Yellow: 20
nutsedge, yellow; [11]
  Nutsedge, Yellow plant response rating: 45
nutsedge, yellow; [12]
  Nutsedge, Yellow plant response rating: 25
nutsedge, yellow; [13]
  Plant response rating, Nutsedge, Yellow: 35
nutsedge, yellow; Preemergence, 250 g ai/ha
  Plant response rating (scale of 0 to 100), Nutsedge, Yellow: 100
Corn [3]; [7]
  Plant response rating, Corn: 0
Corn [3]; [8]
  Plant response rating, Corn: 0
Corn [3]; [9]
  Plant response rating, Corn: 0
Corn [3]; [10]
  Plant response rating, Corn: 55
Corn [3]; [11]
  Corn plant response rating: 0
Corn [3]; [12]
  Corn plant response rating: 10
Corn [3]; [13]
  Plant response rating, Corn: 75
Corn [3]; Preemergence, 250 g ai/ha
  Plant response rating (scale of 0 to 100), Corn: 75
Giant foxtail; [14]
  Plant response rating, Foxtail, Giant: 90
Giant foxtail; [15]
  Plant response rating, Foxtail, Giant: 90
Giant foxtail; [16]
  Plant response rating, Foxtail, Giant: 90
Giant foxtail; [17]
  Plant response rating, Foxtail, Giant: 90
Barnyardgrass [4]; [7]
  Plant response rating, Barnyardgrass: 30
Barnyardgrass [4]; [8]
  Plant response rating, Barnyardgrass: 60
Barnyardgrass [4]; [9]
  Plant response rating, Barnyardgrass: 75
Barnyardgrass [4]; [10]
  Plant response rating, Barnyardgrass: 85
Barnyardgrass [4]; [11]
  Barnyardgrass plant response rating: 80
Barnyardgrass [4]; [12]
  Barnyardgrass plant response rating: 95
Barnyardgrass [4]; [13]
  Plant response rating, Barnyardgrass: 95
Barnyardgrass [4]; Preemergence, 250 g ai/ha
  Plant response rating (scale of 0 to 100; 0 is no effect, 100 is complete control), Barnyardgrass: 98
soybean; [7]
  Plant response rating, Soybean: 0
soybean; [8]
  Plant response rating, Soybean: 0
soybean; [9]
  Plant response rating, Soybean: 0
soybean; [10]
  Plant response rating, Soybean: 10
soybean; [11]
  Soybean plant response rating: 0
soybean; [12]
  Soybean plant response rating: 0
soybean; [13]
  Plant response rating, Soybean: 0
soybean; Preemergence, 250 g ai/ha
  Plant response rating (scale of 0 to 100), Soybean: 15
waterhemp; [7]
  Plant response rating, Waterhemp: 0
waterhemp; [8]
  Plant response rating, Waterhemp: 0
waterhemp; [9]
  Plant response rating, Waterhemp: 0
waterhemp; [10]
  Plant response rating, Waterhemp: 20
waterhemp; [11]
  Waterhemp plant response rating: 0
waterhemp; [12]
  Waterhemp plant response rating: 0
waterhemp; [13]
  Plant response rating, Waterhemp: 15
waterhemp; Preemergence, 250 g ai/ha
  Plant response rating (scale of 0 to 100), Waterhemp: 60

## O=C1NCC(c2cc(F)cc(F)c2)C1C(=O)Nc1ccc(F)cc1F (racemic) [Compound 278]
Corn [1]; [5]
  Plant response rating, Corn: 0
Corn [1]; [6]
  Plant response rating, Corn: 0
ryegrass, Italian; [7]
  Plant response rating, Ryegrass, Italian: 0
ryegrass, Italian; [8]
  Plant response rating, Ryegrass, Italian: 0
ryegrass, Italian; [9]
  Plant response rating, Ryegrass, Italian: 0
ryegrass, Italian; [10]
  Plant response rating, Ryegrass, Italian: 0
ryegrass, Italian; [11]
  Ryegrass, Italian plant response rating: 0
ryegrass, Italian; [12]
  Ryegrass, Italian plant response rating: 0
ryegrass, Italian; [13]
  Plant response rating, Ryegrass, Italian: 0
ryegrass, Italian; Preemergence, 250 g ai/ha
  Plant response rating (scale of 0 to 100), Ryegrass, Italian: 0
ducksalad
  Plant response rating, Ducksalad: 100
lambsquarters; [7]
  Plant response rating, Lambsquarters: 0
lambsquarters; [8]
  Plant response rating, Lambsquarters: 0
lambsquarters; [9]
  Plant response rating, Lambsquarters: 20
lambsquarters; [10]
  Plant response rating, Lambsquarters: 20
lambsquarters; [11]
  Lambsquarters plant response rating: 0
lambsquarters; [12]
  Lambsquarters plant response rating: 0
lambsquarters; [13]
  Plant response rating, Lambsquarters: 0
lambsquarters; Preemergence, 250 g ai/ha
  Plant response rating (scale of 0 to 100), Lambsquarters: 0
Barnyardgrass [2]; [14]
  Plant response rating, Barnyardgrass: 80
Barnyardgrass [2]; [15]
  Plant response rating, Barnyardgrass: 90
Barnyardgrass [2]; [16]
  Plant response rating, Barnyardgrass: 80
Barnyardgrass [2]; [17]
  Plant response rating, Barnyardgrass: 90
nutsedge, yellow; [7]
  Plant response rating, Nutsedge, Yellow: 0
nutsedge, yellow; [8]
  Plant response rating, Nutsedge, Yellow: 0
nutsedge, yellow; [9]
  Plant response rating, Nutsedge, Yellow: 0
nutsedge, yellow; [10]
  Plant response rating, Nutsedge, Yellow: 15
nutsedge, yellow; [11]
  Nutsedge, Yellow plant response rating: 0
nutsedge, yellow; [12]
  Nutsedge, Yellow plant response rating: 0
nutsedge, yellow; [13]
  Plant response rating, Nutsedge, Yellow: 5
nutsedge, yellow; Preemergence, 250 g ai/ha
  Plant response rating (scale of 0 to 100), Nutsedge, Yellow: 5
Corn [3]; [7]
  Plant response rating, Corn: 0
Corn [3]; [8]
  Plant response rating, Corn: 0
Corn [3]; [9]
  Plant response rating, Corn: 0
Corn [3]; [10]
  Plant response rating, Corn: 0
Corn [3]; [11]
  Corn plant response rating: 0
Corn [3]; [12]
  Corn plant response rating: 0
Corn [3]; [13]
  Plant response rating, Corn: 0
Corn [3]; Preemergence, 250 g ai/ha
  Plant response rating (scale of 0 to 100), Corn: 5
Giant foxtail; [14]
  Plant response rating, Foxtail, Giant: 80
Giant foxtail; [15]
  Plant response rating, Foxtail, Giant: 80
Giant foxtail; [16]
  Plant response rating, Foxtail, Giant: 90
Giant foxtail; [17]
  Plant response rating, Foxtail, Giant: 90
Barnyardgrass [4]; [7]
  Plant response rating, Barnyardgrass: 0
Barnyardgrass [4]; [8]
  Plant response rating, Barnyardgrass: 10
Barnyardgrass [4]; [9]
  Plant response rating, Barnyardgrass: 55
Barnyardgrass [4]; [10]
  Plant response rating, Barnyardgrass: 75
Barnyardgrass [4]; [11]
  Barnyardgrass plant response rating: 65
Barnyardgrass [4]; [12]
  Barnyardgrass plant response rating: 90
Barnyardgrass [4]; [13]
  Plant response rating, Barnyardgrass: 95
Barnyardgrass [4]; Preemergence, 250 g ai/ha
  Plant response rating (scale of 0 to 100; 0 is no effect, 100 is complete control), Barnyardgrass: 100
soybean; [7]
  Plant response rating, Soybean: 50
soybean; [8]
  Plant response rating, Soybean: 55
soybean; [9]
  Plant response rating, Soybean: 40
soybean; [10]
  Plant response rating, Soybean: 15
soybean; [11]
  Soybean plant response rating: 0
soybean; [12]
  Soybean plant response rating: 0
soybean; [13]
  Plant response rating, Soybean: 10
soybean; Preemergence, 250 g ai/ha
  Plant response rating (scale of 0 to 100), Soybean: 10
waterhemp; [7]
  Plant response rating, Waterhemp: 0
waterhemp; [8]
  Plant response rating, Waterhemp: 0
waterhemp; [9]
  Plant response rating, Waterhemp: 5
waterhemp; [10]
  Plant response rating, Waterhemp: 5
waterhemp; [11]
  Waterhemp plant response rating: 0
waterhemp; [12]
  Waterhemp plant response rating: 0
waterhemp; [13]
  Plant response rating, Waterhemp: 0
waterhemp; Preemergence, 250 g ai/ha
  Plant response rating (scale of 0 to 100), Waterhemp: 0

Source: patent publication US10294202B2, “Pyrrolidinones as herbicides” (FMC Corporation, priority 2013, dated 2019)
